The NIST ThermoML archive (doi:10.1016/j.fluid.2006.05.032)

Experiment: xn = mol fraction of the nth substance listed
Conditions: Liquid, Vibrating tube method

Cc1ccccc1 [toluene] + CCCO
mass density [kg/m3]
Conditions | x2 = 0 | x2 = 0.125 | x2 = 0.25 | x2 = 0.375 | x2 = 0.5 | x2 = 0.625 | x2 = 0.75 | x2 = 0.875
323.15 K, 35000 kPa | 866 | 859.3 | 853.3 | 847.1 | 840.6 | 833.4 | 825.6 | 816.4
323.15 K, 40000 kPa | 869.4 | 862.8 | 856.5 | 850.3 | 843.9 | 836.7 | 829 | 819.8
323.15 K, 45000 kPa | 872.5 | 865.9 | 859.8 | 853.6 | 847.1 | 840 | 832.2 | 822.9
323.15 K, 50000 kPa | 875.7 | 869.2 | 863 | 856.8 | 850.3 | 843.1 | 835.3 | 826
323.15 K, 55000 kPa | 878.7 | 872.2 | 866 | 859.8 | 853.3 | 846.1 | 838.3 | 829
323.15 K, 60000 kPa | 881.7 | 875.1 | 869 | 862.7 | 856.2 | 848.9 | 841.1 | 831.9
323.15 K, 65000 kPa | 884.6 | 878.1 | 871.9 | 865.6 | 859.1 | 851.8 | 844 | 834.6
333.15 K, 100 kPa | 828.8 | 822 | 815.6 | 809.5 | 803.2 | 796.3 | 788.7 | 779.8
333.15 K, 5000 kPa | 833.5 | 826.8 | 820.5 | 814.3 | 808 | 801.1 | 793.4 | 784.4
333.15 K, 10000 kPa | 838.2 | 831.4 | 825 | 818.9 | 812.6 | 805.8 | 798.1 | 789.1
333.15 K, 15000 kPa | 842.6 | 835.7 | 829.4 | 823.3 | 817 | 810.1 | 802.4 | 793.4
333.15 K, 20000 kPa | 846.6 | 839.8 | 833.6 | 827.4 | 821.1 | 814.2 | 806.6 | 797.5
333.15 K, 25000 kPa | 850.5 | 843.8 | 837.6 | 831.4 | 825 | 818.2 | 810.5 | 801.4
333.15 K, 30000 kPa | 854.3 | 847.6 | 841.4 | 835.2 | 828.8 | 821.9 | 814.1 | 805
333.15 K, 35000 kPa | 857.9 | 851.3 | 845 | 838.9 | 832.5 | 825.6 | 817.8 | 808.6
333.15 K, 40000 kPa | 861.4 | 854.8 | 848.6 | 842.4 | 836 | 829.1 | 821.2 | 812
333.15 K, 45000 kPa | 864.8 | 858.2 | 852 | 845.8 | 839.4 | 832.4 | 824.6 | 815.4
333.15 K, 50000 kPa | 868.1 | 861.5 | 855.2 | 849 | 842.7 | 835.6 | 827.8 | 818.6
333.15 K, 55000 kPa | 871.4 | 864.6 | 858.4 | 852.2 | 845.8 | 838.8 | 831 | 821.9
333.15 K, 60000 kPa | 874.5 | 867.8 | 861.4 | 855.3 | 848.9 | 841.8 | 834 | 824.8
333.15 K, 65000 kPa | 877.5 | 870.7 | 864.5 | 858.3 | 851.9 | 844.8 | 836.9 | 827.7
343.15 K, 100 kPa | 819.4 | 812.2 | 805.5 | 799.4 | 793.3 | 786.5 | 779.1 | 770.7
343.15 K, 5000 kPa | 824.5 | 817.3 | 810.8 | 804.6 | 798.4 | 791.7 | 784.2 | 775.8
343.15 K, 10000 kPa | 829.3 | 822.3 | 815.8 | 809.6 | 803.4 | 796.6 | 789.1 | 780.6
343.15 K, 15000 kPa | 833.9 | 826.9 | 820.4 | 814.3 | – | – | – | –
